In ChEMBL document CHEMBL4043113, “A novel antihypertension agent, sargachromenol D from marine brown algae, Sargassum siliquastrum, exerts dual action as an L-type Ca2+ channel blocker and endothelin A/B2 receptor antagonist” (Bioorg Med Chem, 2017):
Active and inactive are the calls of the source. The rule behind the calls is not given here.

How the values were obtained:
[1] = Antagonist activity at New Zealand rabbit L-type calcium channel assessed as dilation of K+-depolarization induced basilary artery contraction measured after 20 mins; parameters: species or system Oryctolagus cuniculus
[2] = species: Oryctolagus cuniculus; experiment: (§1) Antagonist activity at New Zealand rabbit endothelin A/B2 receptor assessed as dilation of endothelin-1 induced basilary artery contraction measured after 20 mins
[3] = as §1; parameters: species or system Oryctolagus cuniculus

SMILES | EC50 [1] | Activity [2] | EC50 [3]
C/C(=C\CCC(C)O)CCC/C(C)=C/C(=O)CC(C)C (stereo unspecified) | 3520 nM | inactive | –
CC(=O)CC/C=C(\C)CCC/C(C)=C\C(=O)CC(C)C | – | inactive | –

The next lines start with the values.

EC50 [1] | Activity [2] | EC50 [3] | SMILES
520 nM | – | – | COCCOC(=O)C1=C(C)NC(C)=C(C(=O)OC(C)C)C1c1cccc([N+](=O)[O-])c1 (stereo unspecified) [NIMODIPINE]
– | inactive | – | CC(=O)CC/C=C(\C)CCC/C(C)=C/C(=O)CC(C)C
– | – | 530 nM | COc1ccccc1Oc1c(NS(=O)(=O)c2ccc(C(C)(C)C)cc2)nc(-c2ncccn2)nc1OCCO [BOSENTAN]
